The values that follow come from US20240083861A1, “HSD17B13 INHIBITORS AND USES THEREOF” (FL2022-001, Inc., priority 2020, published 2024).

The target of the assay is T1, Recombinant human HSD17B13 enzyme (Homo sapiens, UniProt Q7Z5P4).
T1 sequence (Q7Z5P4 20-300): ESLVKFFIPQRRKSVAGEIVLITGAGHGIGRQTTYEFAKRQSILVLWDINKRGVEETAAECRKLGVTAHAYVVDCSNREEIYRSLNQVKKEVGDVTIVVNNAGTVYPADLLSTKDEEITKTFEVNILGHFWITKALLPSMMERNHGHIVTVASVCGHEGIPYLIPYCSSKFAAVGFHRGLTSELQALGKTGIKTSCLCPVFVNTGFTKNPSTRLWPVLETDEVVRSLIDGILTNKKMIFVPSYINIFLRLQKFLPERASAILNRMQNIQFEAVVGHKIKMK
Description: HSD17b13 NAD(P)H-Glo biochemical assay. Particulars: 50 uM estradiol, 1 mM NAD+, NAD(P)H-Glo luminescence; read-out: HSD17β13 IC50. As to the method:
Example B-1: HSD17b13 NAD(P)H-Glo Biochemical Assay
Recombinant human HSD17B13 enzyme. Substrate: estradiol (Sigma β-Estradiol E8875), 100 mM in DMSO. Cofactor: NAD+ Grade I free acid (Sigma 10127965001), 20 mM in H2O. Assay buffer final concentration: 20 mM Tris pH7.4 with 0.002% Tween-20 and 0.02% BSA. Assay performed in 384 well solid bottom plate (Corning 3570). Enzymatic activity detected by NAD(P)H-Glo™ Detection System (Promega G9062).
Inhibitor compounds were serially diluted in DMSO and then further diluted in assay buffer to a 10× concentration consisting of 1% DMSO.
HSD17b13 enzyme was diluted in 1× assay buffer to the desired enzyme concentration based on the specific activity of the enzyme lot. 20 uL of diluted enzyme was added to each well along with 2.5 uL of 10× inhibitor solution. Assay plate was incubated at RT for 20 minutes, and then 2.5 uL of a 10× substrate/cofactor mix was added to each well for a final concentration of 50 uM estradiol and 1 mM NAD+. Assay plate was incubated at 37° C. for 3 hours. NAD(P)H-Glo™ Detection System reagents were prepared according to manufacturer's specifications, and 25 uL was added to each well. After incubating for 1 hour at RT, luminescence was measured.
Usually IC50 stands for the concentration at which inhibition is half-maximal. On to `O=C(NC12CC(C1)C2)c1ccc2oc(-c3cc(C(F)(F)F)c(F)c(O)c3F)nc2c1` [Compound 1.13, N-(Bicyclo[1.1.1]pentan-1-yl)-2-(2,4-difluoro-3-hydroxy-5-(trifluoromethyl)phenyl)benzo[d]oxa-zole-5-carboxamide], for which the IC50 was less than 100 nM. As for `Cn1nc(-c2cc(C(F)(F)F)c(F)c(O)c2F)c2cnc(N3CCN(C(=O)c4cccnc4)CC3)nc21` [Compound 18.128, (4-(3-(2,4-Difluoro-3-hydroxy-5-(trifluoromethyl)phenyl)-1-methyl-1H-pyrazolo[3,4-d]pyrimidin-6-yl)piperazin-1-yl)(pyridin-3-yl)methanone], the figure is 100 to 1000 nM. Take `CS(=O)(=O)N1CCN(c2ncc3c(-c4cc(O)c(F)c(C(F)(F)F)c4)n[nH]c3n2)CC1` [Compound 10, 2-Fluoro-5-(6-(4-(methylsulfonyl)piperazin-1-yl)-1H-pyrazolo[3,4-d]pyrimidin-3-yl)-3-(trifluoromethyl)phenol]: the IC50 was 100 to 1000 nM. As for `Cn1nc(-c2cc(C(F)(F)F)c(F)c(O)c2F)c2cnc(N3CCN(S(C)(=O)=O)C(C#N)C3)nc21` (centres unmarked) [Compound 18.118, 4-(3-(2,4-Difluoro-3-hydroxy-5-(trifluoromethyl)phenyl)-1-methyl-1H-pyrazolo[3,4-d]pyrimidin-6-yl)-1-(methylsulfonyl)piperazine-2-carbonitrile], the IC50 is less than 100 nM. Consider `Cn1nc(-c2cc(C(F)(F)F)c(F)c(O)c2F)c2cnc(N3CCNC(=O)C34CC4)cc21` [Compound 9.43, 4-(3-(2,4-Difluoro-3-hydroxy-5-(trifluoromethyl)phenyl)-1-methyl-1H-pyrazolo[4,3-c]pyridin-6-yl)-4,7-diazaspiro[2.5]octan-8-one], for which the half-maximal inhibitory concentration (IC50) is less than 100 nM. For the molecule `CS(=O)(=O)N1CCN(c2ccc3oc(-c4cc(O)c(F)c(C(F)(F)F)c4)nc3c2)CC1` [Compound 6, 2-Fluoro-5-(5-(4-(methylsulfonyl)piperazin-1-yl)benzo[d]oxazol-2-yl)-3-(trifluoromethyl)phenol], the IC50 was less than 100 nM.

Regarding `Cn1nc(-c2cc(C(F)(F)F)c(F)c(O)c2F)c2cnc(N3CCO[C@@H](c4ccccc4)C3)nc21` [Compound 18.86, (S)-2,6-Difluoro-3-(1-methyl-6-(2-phenylmorpholino)-1H-pyrazolo[3,4-d]pyrimidin-3-y1)-5-(trifluoromethyl)phenol], the IC50 is less than 100 nM. `Cn1nc(-c2cc(C(F)(F)F)c(F)c(O)c2F)c2cnc(N3CC4CCC3CO4)cc21` (centres unmarked) [Compound 9.28, 3-(6-(2-Oxa-5-azabicyclo[2.2.2]octan-5-yl)-1-methyl-1H-pyrazolo[4,3-c]pyridin-3-yl)-2,6-difluoro-5-(trifluoromethyl)phenol]: the IC50 was less than 100 nM. As for `CN(c1ncc2c(-c3cc(C(F)(F)F)c(F)c(O)c3F)nn(C)c2c1F)C1CCOCC1` [Compound 9.136, 2,6-Difluoro-3-(7-fluoro-1-methyl-6-(methyl(tetrahydro-2H-pyran-4-yl)amino)-1H-pyrazolo[4,3-c]pyridin-3-yl)-5-(trifluoromethyl)phenol], the figure is less than 100 nM; as for `CCN(c1cc2c(cn1)c(-c1cc(C(F)(F)F)c(F)c(O)c1F)nn2C)C1CCC1` [Compound 9.46, 3-(6-(Cyclobutyl(ethyl)amino)-1-methyl-1H-pyrazolo[4,3-c]pyridin-3-yl)-2,6-difluoro-5-(trifluoromethyl)phenol], less than 100 nM. As for `Cn1nc(-c2cc(C(F)(F)F)c(F)c(O)c2F)c2cnc(N3CCOCC3C3CCOCC3)nc21` (centres unmarked) [Compound 18.42, 2,6-Difluoro-3-(1-methyl-6-(3-(tetrahydro-2H-pyran-4-yl)morpholino)-1H-pyrazolo[3,4-d]pyrimidin-3-y1)-5-(trifluoromethyl)phenol], the figure is less than 100 nM; as for `Cn1nc(-c2cc(C(F)(F)F)c(F)c(O)c2F)c2cc(F)c(N3CCOCC34CC4)cc21` [Compound 9.121, 2,6-Difluoro-3-(5-fluoro-1-methyl-6-(7-oxa-4-azaspiro[2.5]octan-4-yl)-1H-indazol-3-yl)-5-(trifluoromethyl)phenol], less than 100 nM. The value for `Cn1nc(-c2cc(C(F)(F)F)c(F)c(O)c2F)c2cnc(N3CCOCC3C(=O)O)nc21` (centres unmarked) [Compound 18.38, 4-(3-(2,4-Difluoro-3-hydroxy-5-(trifluoromethyl)phenyl)-1-methyl-1H-pyrazolo[3,4-d]pyrimidin-6-yl)morpholine-3-carboxylic Acid] was 1000 to 30000 nM; that for `Cn1nc(-c2cc(C(F)(F)F)c(F)c(O)c2F)c2cnc(N3CCN(S(C)(=O)=O)C4(CCC4)C3)nc21` [Compound 18.63, 2,6-Difluoro-3-(1-methyl-6-(5-(methylsulfony1)-5,8-diazaspiro[3.5]nonan-8-yl)-1H-pyrazolo[3,4-d]pyrimidin-3-y1)-5-(trifluoromethyl)phenol] was less than 100 nM. In the case of `CN(c1ncc2c(-c3cc(C(F)(F)F)c(F)c(O)c3F)nn(C)c2c1Cl)C1CCOCC1` [Compound 12.08, 3-(7-Chloro-1-methyl-6-(methyl(tetrahydro-2H-pyran-4-yl)amino)-1H-pyrazolo[4,3-c]pyridin-3-yl)-2,6-difluoro-5-(trifluoromethyl)phenol], the IC50 was less than 100 nM. For the molecule `Cn1nc(-c2cc(C(F)(F)F)c(F)c(O)c2F)c2cnc(N3CCS(=O)(=O)C(C)(C)C3)nc21` [Compound 18.54, 4-(3-(2,4-Difluoro-3-hydroxy-5-(trifluoromethyl)phenyl)-1-methyl-1H-pyrazolo[3,4-d]pyrimidin-6-yl)-2,2-dimethylthiomorpholine 1,1-dioxide], the IC50 is less than 100 nM. The value for `Cn1nc(-c2cc(C(F)(F)F)c(F)c(O)c2F)c2cnc(N3CCOC(C)(C#N)C3)cc21` (centres unmarked) [Compound 9.89, 4-(3-(2,4-Difluoro-3-hydroxy-5-(trifluoromethyl)phenyl)-1-methyl-1H-pyrazolo[4,3-c]pyridin-6-yl)-2-methylmorpholine-2-carbonitrile] was less than 100 nM. The value for `Cn1nc(-c2cc(C(F)(F)F)c(F)c(O)c2F)c2cnc(N3CCOCC3)cc21` [Compound 9.57, 2,6-Difluoro-3-(1-methyl-6-morpholino-1H-pyrazolo[4,3-c]pyridin-3-yl)-5-(trifluoromethyl)phenol] was less than 100 nM; that for `Cn1nc(-c2cc(C(F)(F)F)c(F)c(O)c2F)c2cnc(N3CCOC(C4CCOCC4)C3)nc21` (centres unmarked) [Compound 18.49, 2,6-Difluoro-3-(1-methyl-6-(2-(tetrahydro-2H-pyran-4-yl)morpholino)-1H-pyrazolo[3,4-d]pyrimidin-3-y1)-5-(trifluoromethyl)phenol] was less than 100 nM; that for `Cn1nc(-c2cc(C(F)(F)F)c(F)c(O)c2F)c2cnc(N3CCN(C(=O)Nc4ccccc4)CC3)nc21` [Compound 18.116, 4-(3-(2,4-Difluoro-3-hydroxy-5-(trifluoromethyl)phenyl)-1-methyl-1H-pyrazolo[3,4-d]pyrimidin-6-yl)-N-phenylpiperazine-1-carboxamide] was less than 100 nM. Take `COCC1COCCN1c1cc2c(cn1)c(-c1cc(C(F)(F)F)c(F)c(O)c1F)nn2C` (centres unmarked) [Compound 9.60, 2,6-Difluoro-3-(6-(3-(methoxymethyl)morpholino)-1-methyl-1H-pyrazolo[4,3-c]pyridin-3-yl)-5-(trifluoromethyl)phenol]: the IC50 is less than 100 nM. Turning to `Cn1nc(-c2cc(C(F)(F)F)c(F)c(O)c2F)c2cnc(N3CCOCC34CCCC4)cc21` [Compound 9.84, 2,6-Difluoro-3-(1-methyl-6-(9-oxa-6-azaspiro[4.5]decan-6-yl)-1H-pyrazolo[4,3-c]pyridin-3-yl)-5-(trifluoromethyl)phenol], the IC50 was less than 100 nM.

In the case of `Cn1nc(-c2cc(C(F)(F)F)c(F)c(O)c2F)c2cnc(N3CCOC(c4cc[nH]n4)C3)nc21` (centres unmarked) [Compound 18.82, 3-(6-(2-(1H-Pyrazol-3-yl)morpholino)-1-methyl-1H-pyrazolo[3,4-d]pyrimidin-3-y1)-2,6-difluoro-5-(trifluoromethyl)phenol], the IC50 is less than 100 nM.

On to `CS(=O)(=O)N1CC=C(c2cc3[nH]nc(-c4cc(O)c(F)c(C(F)(F)F)c4)c3cn2)CC1` [Compound 14.03, 2-Fluoro-5-(6-(1-(methylsulfony1)-1,2,3,6-tetrahydropyridin-4-yl)-1H-pyrazolo[4,3-c]pyridin-3-yl)-3-(trifluoromethyl)phenol], for which the IC50 lay within 100 to 1000 nM. Take `Cn1nc(-c2cc(C(F)(F)F)c(F)c(O)c2F)c2cnc(N3CCCOCC3)cc21` [Compound 9.58, 2,6-Difluoro-3-(1-methyl-6-(1,4-oxazepan-4-yl)-1H-pyrazolo[4,3-c]pyridin-3-yl)-5-(trifluoromethyl)phenol]: the IC50 was less than 100 nM. On to `CN(c1cc2c(cn1)c(-c1cc(C(F)(F)F)c(F)c(O)c1F)nn2C)C12CC(C1)C2` [Compound 9.32, 3-(6-(Bicyclo[1.1.1]pentan-1-yl(methyl)amino)-1-methyl-1H-pyrazolo[4,3-c]pyridin-3-yl)-2,6-difluoro-5-(trifluoromethyl)phenol], for which the IC50 was less than 100 nM.
